Here are results for 32 compounds from patent US12421206B2, “Aryl-n-aryl derivatives for treating a RNA virus infection” (ABIVAX, priority 2018, dated 2025).

The test system of the test is RSV A2. The experiment in a line: RSV inhibition (cytopathic effect inhibition) using Viral ToxGlo assay in HEp-2 cells. The format is cell-based. To be noted: human respiratory syncytial virus, RSV A2, MOI 0.5, HEp-2 cells, 72 h p.i. Here is the method: Protocol for Screening Antiviral Compounds for RSV Inhibition and Cytotoxicity Using Viral ToxGlo Assay
HEp-2 cells were maintained in Eagle's minimum essential medium (EMEM) with Earle's BSS adjusted to contain 2 mM L-glutamine, 10% fetal bovine serum, 100 U/ml penicillin and 100 μg/ml streptomycin. For the purposes of the screening assay they were grown to 90% confluency, trypsinized and recovered. The trypsin was neutralised with cell culture media and cells were centrifuged at 150×g for 5 minutes before discarding the supernatant and resuspending cell pellet in assay media (EMEM with Earle's BSS adjusted to contain 2 mM L-glutamine, 2% fetal bovine serum and 100 U/ml penicillin and 100 μg/ml streptomycin). The cells were seeded into white clear-bottomed cell culture plates at a density of 1.5×10^4 cells/well in 50 μl and 4×10^3 cells/well in 25 μl for 96 well plates and 384 well plates respectively. For the media/background control column assay media only was added. Cell plates were placed in a humid chamber and incubated overnight at 37° C./5% CO2. After overnight incubation cells were checked for confluency and healthy appearance.
Test articles were made up at 10× test concentration in a maximum DMSO concentration of 10% (final assay concentration maximal 1% DMSO) and added to the cell plates in volumes of 10 μl for 96 well plates and 5 μl for 384 well plates. For cell control and virus control wells the test article solvent only was added. Virus or assay media for cytotoxicity test wells and media/cell control wells was added immediately after test articles at an MOI of 0.5, 40 or 20 μl for 96 and 384 well plates respectively. Virus suspension was prepared by thawing RSV A2 frozen stocks and diluting to the required concentration of plaque forming units in assay media on ice.
Cell plates were further incubated inside a humid chamber for 72 h p.i at 37° C./5% CO2. After the incubation period cells were observed under the microscope to check for characteristic cytopathic effect in virus control wells and healthy cells in the cell control wells. After plates were adjusted to room temperature 20/40 μl Viral ToxGlo (Promega) was added to each well of the 384/96 well cell plates. Plates were incubated at room temperature, protected from light on a plate rocker for 20 minutes before measuring the luminescence on a spectrophotometer (Biotek Synergy HTX).
RSV inhibition was calculated as percentage of cytopathic effect inhibition relative to the virus control and cytotoxicity as percentage of cell survival relative to cell control wells. This allowed EC50 values to be calculated for each test article where a virus inhibition or cytotoxic dose response was identified.
On the technique in general: Protection from cytopathic effect is a common read-out in antiviral testing.
As to `O=C(NCCC1CCCC1)c1cccc(Nc2ccc(OCc3ccccn3)cc2C2CC2)c1` [Compound 60, N-(2-cyclopentylethyl)-3-((2-cyclopropyl-4-(pyridin-2-ylmethoxy)phenyl)amino)benzamide], the EC50 came to 67 nM. Then `Cc1cc(OCc2ccccn2)ccc1Nc1cccc(C(=O)NCCCC(C)C)c1` [Compound 72, 3-((2-methyl-4-(pyridin-2-ylmethoxy)phenyl)amino)-N-(4-methylpentyl)benzamide], with 158 nM; and `CCc1cc(OCc2ccccn2)ccc1Nc1cccc(C(=O)NCCC2CCCCC2)c1` [Compound 75, N-(2-(cyclohexyl)ethyl)-3-((2-ethyl-4-(pyridin-2-ylmethoxy)phenyl)amino)benzamide], with 25 nM. Take `O=C(NCCC1CCCCC1)c1cccc(Nc2ccc(OCc3ccccn3)cc2C2CC2)c1` [Compound 76, N-(2-(cyclohexyl)ethyl)-3-((2-cyclopropyl-4-(pyridin-2-ylmethoxy)phenyl)amino)benzamide]: the EC50 was 14 nM. Take `CCCC(C)NC(=O)c1cccc(Nc2ccc(OCc3ccccn3)cc2C)c1` (centres unmarked) [Compound 77, N-(1-methylbutyl)-3-((2-methyl-4-(pyridin-2-ylmethoxy)phenyl)amino)benzamide]: the 50% effective concentration (EC50) stood at 124 nM. For the compound `CCCC(C)NC(=O)c1cccc(Nc2ccc(OCc3ccccn3)cc2CC)c1` (centres unmarked) [Compound 78, N-(1-methylbutyl)-3-((2-ethyl-4-(pyridin-2-ylmethoxy)phenyl)amino)benzamide], the EC50 turned out to be 58 nM. On to `O=S(=O)(NCCC1CCCCC1)c1cccc(Nc2ccc(OCc3ccccn3)cc2C2CC2)c1` [Compound 79, N-(2-(cyclohexyl)ethyl)-3-((2-cyclopropyl-4-(pyridin-2-ylmethoxy)phenyl)amino)benzenesulfonamide], for which the EC50 came to 33 nM.

With `O=C(CCC1CCCCC1)Nc1cccc(Nc2ccc(OCc3ccccn3)cc2C2CC2)c1` [Compound 80, (3-(cyclohexyl)propanamide), N-[3-([2-cyclopropyl-4-(pyridin-2-ylmethoxy)phenyl]amino)phenyl]-], the EC50 was 21 nM.

As to `c1ccc(COc2ccc(Nc3cccc(OCCCC4CCCCC4)c3)c(C3CC3)c2)nc1` [Compound 83, 3-(3-cyclohexylpropoxy)-N-(2-cyclopropyl-4-(pyridin-2-ylmethoxy)phenyl)aniline], the EC50 was 9 nM. As to `NC(=O)c1cccc(Nc2ccc(OCc3ccccn3)cc2C2CC2)c1` [Compound 84, 3-((2-cyclopropyl-4-(pyridin-2-ylmethoxy)phenyl)amino)benzamide], the EC50 was 637 nM. Turning to `O=C(NCCC1CCCCC1)c1cccc(Nc2ccc(OCc3cccnc3)cc2C2CC2)c1` [Compound 85, N-(2-cyclohexylethyl)-3-((2-cyclopropyl-4-(pyridin-3-ylmethoxy)phenyl)amino)benzamide], the EC50 was 8 nM. In the case of `O=C(NCCC1CCCCC1)c1cccc(Nc2ccc(OCc3ccccn3)cc2C2CC2)n1` [Compound 86, N-(2-cyclohexylethyl)-6-((2-cyclopropyl-4-(pyridin-2-ylmethoxy)phenyl)amino)picolinamide] it was 567 nM; in that of `O=C(NCCC1CCCCC1)c1cncc(Nc2ccc(OCc3ccccn3)cc2C2CC2)c1` [Compound 88, N-(2-cyclohexylethyl)-5-((2-cyclopropyl-4-(pyridin-2-ylmethoxy)phenyl)amino)nicotinamide], 461 nM. With `O=C(NCCC1CCCC1)c1cccc(Nc2ccc(OCc3ccncc3)cc2C2CC2)c1` [Compound 89, N-(2-cyclopentylethyl)-3-((2-cyclopropyl-4-(pyridin-4-ylmethoxy)phenyl)amino)benzamide], the EC50 is 140 nM. Then `O=C(NCCC1CCCCC1)c1ccnc(Nc2ccc(OCc3ccccn3)cc2C2CC2)c1` [Compound 90, N-(2-cyclohexylethyl)-2-((2-cyclopropyl-4-(pyridin-2-ylmethoxy)phenyl)amino)isonicotinamide], with 92 nM; and `CC(C)(C)c1cc(OCc2ccccc2)ccc1Nc1cccc(NC(=O)CCC2CCCCC2)c1` [Compound 91, N-(3-{[4-(benzyloxy)-2-tert-butylphenyl]amino}phenyl)-3-cyclohexylpropanamide], with 2 nM; and `O=C(CCC1CCCCC1)Nc1cccc(Nc2ccc(OCc3ccccc3)cc2C2=CCCC2)c1` [Compound 92, N-(3-{[4-(benzyloxy)-2-(cyclopent-1-en-1-yl)phenyl]amino}phenyl)-3-cyclohexylpropanamide], with 4 nM.

With `O=C(CCC1CCCCC1)Nc1cccc(Nc2ccc(OCc3ccccc3)cc2C2CCCC2)c1` [Compound 93, N-(3-{[4-(benzyloxy)-2-cyclopentylphenyl]amino}phenyl)-3-cyclohexylpropanamide], the EC50 worked out at 4 nM.

As to `CSc1cc(OCc2ccccc2)ccc1Nc1cccc(NC(=O)CCC2CCCCC2)c1` [Compound 94, N-(3-{[4-(benzyloxy)-2-(methylsulfanyl)phenyl]amino}phenyl)-3-cyclohexylpropanamide], the EC50 turned out to be 7 nM. With `c1ccc(COc2ccc(Nc3cccc(NCCCC4CCCCC4)c3)c(C3CC3)c2)cc1` [Compound 95, N1-[4-(benzyloxy)-2-cyclopropylphenyl]-N3-(3-cyclohexylpropyl)benzene-1,3-diamine], the EC50 was 8 nM. Consider `O=C(NCCC1CCCCC1)Nc1cccc(Nc2ccc(OCc3ccccn3)cc2C2CC2)c1` [Compound 96, 1-(2-cyclohexylethyl)-3-[3-({2-cyclopropyl-4-[(pyridin-2-yl)methoxy]phenyl}amino)phenyl]urea], for which the EC50 stood at 10 nM.

Regarding `OC(CCCC1CCCCC1)c1cccc(Nc2ccc(OCc3ccccc3)cc2C2CC2)c1` (centres unmarked) [Compound 97, 1-(3-{[4-(benzyloxy)-2-cyclopropylphenyl]amino}phenyl)-4-cyclohexylbutan-1-ol], the EC50 was 10 nM. In the case of `O=C(CCC1CCCCC1)Nc1cccc(Nc2ccc(OCc3ccc(F)cc3)cc2C(F)(F)F)c1` [Compound 99, 3-cyclohexyl-N-[3-({4-[(4-fluorophenyl)methoxy]-2-(trifluoromethyl)phenyl}amino)phenyl]propanamide] it was 13 nM. Then `c1ccc(COc2ccc(Nc3cccc(-n4cc(CC5CCCCC5)nn4)c3)c(C3CC3)c2)nc1` [Compound 100, N-{3-[4-(cyclohexylmethyl)-1H-1,2,3-triazol-1-yl]phenyl}-2-cyclopropyl-4-[(pyridin-2-yl)methoxy]aniline], with 16 nM. For `CC(C)(C)c1cc(OCc2ccccc2)ccc1Nc1ccccc1C(=O)NCCC1CCCCC1` [Compound 101, 2-{[4-(benzyloxy)-2-tert-butylphenyl]amino}-N-(2-cyclohexylethyl)benzamide], the EC50 stood at 21 nM. Consider `Cc1c(NC(=O)C2(C#N)CC2)cccc1Nc1ccc(OCc2ccccn2)cc1C1CC1` [Compound 102, 1-cyano-N-[3-({2-cyclopropyl-4-[(pyridin-2-yl)methoxy]phenyl}amino)-2-methylphenyl]cyclopropane-1-carboxamide], for which the EC50 was determined as 22 nM. For the compound `O=C(NCCCC1CCCCC1)c1ccccc1Nc1ccc(OCc2ccccc2)cc1C1CC1` [Compound 103, 2-{[4-(benzyloxy)-2-cyclopropylphenyl]amino}-N-(3-cyclohexylpropyl)benzamide], the EC50 is 24 nM. Turning to `O=C(NCCC1CCCC1)c1cccc(Nc2ccc(OCc3ccccc3)cc2C(F)(F)F)c1` [Compound 104, 3-{[4-(benzyloxy)-2-(trifluoromethyl)phenyl]amino}-N-(2-cyclopentylethyl)benzamide], the EC50 was found to be 29 nM. Then `Cc1c(Nc2ccc(OCc3ccccc3)cc2C2CC2)cccc1OCCCC1CCCCC1` [Compound 105, 4-(benzyloxy)-N-[3-(3-cyclohexylpropoxy)-2-methylphenyl]-2-cyclopropylaniline], with 31 nM; and `CC(C)CCCOc1cccc(Nc2ccc(OCc3ccccn3)cc2C2CC2)c1` [Compound 106, 2-cyclopropyl-N-{3-[(4-methylpentyl)oxy]phenyl}-4-[(pyridin-2-yl)methoxy]aniline], with 33 nM. Take `CS(=O)(=O)c1cc(OCc2ccccc2)ccc1Nc1cccc(NC(=O)CCC2CCCCC2)c1` [Compound 107, N-(3-{[4-(benzyloxy)-2-methanesulfonylphenyl]amino}phenyl)-3-cyclohexylpropanamide]: the EC50 is 36 nM. As for `Cc1c(NC(=O)C2(C(N)=O)CC2)cccc1Nc1ccc(OCc2ccccn2)cc1C1CC1` [Compound 108, N′1-[3-({2-cyclopropyl-4-[(pyridin-2-yl)methoxy]phenyl}amino)-2-methylphenyl]cyclopropane-1,1-dicarboxamide], the EC50 is 41 nM.

What is called EC50 is the midpoint of the concentration-response curve.
